Laboratory results as given in patent US20080214606A1, “Methods for the Identification and Use of Compounds Suitable for the Treatment of Drug Resistant Cancer Cells” (The Government of the United States of America as …, priority 2004, published 2008).

Legend:
[1] = target: T1, ABCA3 (Homo sapiens, UniProt Q99758); assay: Correlation of ABCA3 expression with drug sensitivity across the NCI-60; type: cell-based; conditions: Pearson correlation of ABCA3 expression with sensitivity of the 60 cell lines; 1429 compounds; inverse, p < 0.0001
T1 construct: profiled in 60 diverse cancer cell lines (the NCI-60) using real-time RT-PCR; endogenous in cells; host or cells: NCI-60 human cancer cell lines
Description: (§1) Expression levels are measured by real-time quantitative RT-PCR using the LightCycler RNA Amplification SYBR Green kit and a LightCycler machine (Roche Biochemicals, Indianapolis, Ind.). […] When possible, the amplicons are designed to encompass exon-intron boundaries to avoid amplification of genomic DNA. Since the Syber Green assay detects accumulation of double stranded DNA, primers are selected (from a battery consisting of about 200 primers) that amplified a single product of the correct size.
(§2) RT-PCR is carried out on 150 ng total RNA, in the presence of 250 nM specific primers. Following reverse transcription (20 min at 50° C.), the PCR reaction consists of 45 cycles of denaturation (15 sec at 95° C.), annealing (30 sec at 58° C.), and elongation (30 sec at 72° C.). No-template (water) reaction mixtures are prepared as negative controls.
(§3) During PCR amplification, fluorescence emission is measured and recorded in real time by the LightCycler. Crossing point values are calculated, using the LightCycler software package, by the Fit Points analysis method, with baseline fluorescence set at 1. The SyberGreen assay measures accumulation of double-stranded products, and the appearance of primer dimers limits quantitation at high cycle numbers. The specificity of amplified products is verified by melting-curve analysis and agarose gel electrophoresis (not shown). The raw results are expressed as number of cycles to reach the crossing point. If the desired product is not detected, the corresponding value is adjusted to crossing points indicating no expression. To assess the contribution of experimental artifacts, selected cell lines are assessed in replicate.
(§4) The two are combined to form a joint dataset that includes 1429 compounds.
(§5) To determine quantitatively how well the 47 genes cluster the cell lines by their tissues of origin, a statistical method is employed wherein the kappa statistic is used to indicate how well the observed clusters correspond to the nine tissue-of-origin classifications. […] To control the overall false type 1 error rate, both a step-down procedure (Westfall and Young, 1993, Resampling-Based Multiple Testing: Examples and Methods for p-value Adjustment (New York: Wiley)) and a step-up procedure (Reiner et al., 2003, Bioinformatics 19:368-375) were employed to adjust for multiple testing of all 47 genes simultaneously. In the Benjamini-Hochberg procedure the p-values are computed in the standard way by permutation, assuming that all distributions are exchangeable: the number of values in the permuted data with correlations over a threshold, divided by the number of compounds and by the number of permutations. In this analysis, the False Discovery Rate (q-value) at which each compound would be declared was calculated using the step-up procedure for positively correlated test statistics (again true because all correlations being compared are computed against the same ABC gene): in this procedure the first q-value for the largest correlation is the Bonferroni-corrected p-value for that gene; then further q-values are calculated as qj=max(pj*1429/j, qj-1). This procedure limits the expected proportion of false positives in the list 1, . . . , j to at most qj.

[2] = target: T2, ABCA12 (Homo sapiens, UniProt Q86UK0); assay: Correlation of ABCA12 expression with drug sensitivity across the NCI-60; type: cell-based; conditions: Pearson correlation of ABCA12 expression with sensitivity of the 60 cell lines; 1429 compounds; inverse, p < 0.0001
T2 construct: profiled in 60 diverse cancer cell lines (the NCI-60) using real-time RT-PCR; endogenous in cells; host or cells: NCI-60 human cancer cell lines
Description: (§6) Expression levels are measured by real-time quantitative RT-PCR using the LightCycler RNA Amplification SYBR Green kit and a LightCycler machine (Roche Biochemicals, Indianapolis, Ind.). Specific oligonucleotide probes are designed for each of the ABC transporters using DNAStar Primer Select (DNASTAR Inc.), and they may be synthesized at Lofstrand Laboratories (Gaithersburg, Md.). When possible, the amplicons are designed to encompass exon-intron boundaries to avoid amplification of genomic DNA. Since the Syber Green assay detects accumulation of double stranded DNA, primers are selected (from a battery consisting of about 200 primers) that amplified a single product of the correct size.
as §2, §3, §4
(§7) To control the overall false type 1 error rate, both a step-down procedure (Westfall and Young, 1993, Resampling-Based Multiple Testing: Examples and Methods for p-value Adjustment (New York: Wiley)) and a step-up procedure (Reiner et al., 2003, Bioinformatics 19:368-375) were employed to adjust for multiple testing of all 47 genes simultaneously. […] In this analysis, the False Discovery Rate (q-value) at which each compound would be declared was calculated using the step-up procedure for positively correlated test statistics (again true because all correlations being compared are computed against the same ABC gene): in this procedure the first q-value for the largest correlation is the Bonferroni-corrected p-value for that gene; then further q-values are calculated as qj=max(pj*1429/j, qj-1). […]

[3] = target: T3, ABCC1 (Homo sapiens, UniProt P33527); assay: Correlation of ABCC1 expression with drug sensitivity across the NCI-60; type: cell-based; conditions: Pearson correlation of ABCC1 expression with sensitivity of the 60 cell lines; 1429 compounds; inverse, p < 0.0001
T3 construct: profiled in 60 diverse cancer cell lines (the NCI-60) using real-time RT-PCR; endogenous in cells; host or cells: NCI-60 human cancer cell lines
Description: as §1, §2, §3, §4
(§8) In the Benjamini-Hochberg procedure the p-values are computed in the standard way by permutation, assuming that all distributions are exchangeable: the number of values in the permuted data with correlations over a threshold, divided by the number of compounds and by the number of permutations. In this analysis, the False Discovery Rate (q-value) at which each compound would be declared was calculated using the step-up procedure for positively correlated test statistics (again true because all correlations being compared are computed against the same ABC gene): in this procedure the first q-value for the largest correlation is the Bonferroni-corrected p-value for that gene; then further q-values are calculated as qj=max(pj*1429/j, qj-1). This procedure limits the expected proportion of false positives in the list 1, . . . , j to at most qj.

[4] = target: T4, ABCA4 (Homo sapiens, UniProt P78363); assay: Correlation of ABCA4 expression with drug sensitivity across the NCI-60; type: cell-based; conditions: Pearson correlation of ABCA4 expression with sensitivity of the 60 cell lines; 1429 compounds; inverse, p < 0.0001
T4 construct: profiled in 60 diverse cancer cell lines (the NCI-60) using real-time RT-PCR; endogenous in cells; host or cells: NCI-60 human cancer cell lines
Description: as §6, §2, §3, §4, §7

[5] = target: T5, ABCB11 (Homo sapiens, UniProt O95342); assay: Correlation of ABCB11 expression with drug sensitivity across the NCI-60; type: cell-based; conditions: Pearson correlation of ABCB11 expression with sensitivity of the 60 cell lines; 1429 compounds; inverse, p < 0.0001
T5 construct: profiled in 60 diverse cancer cell lines (the NCI-60) using real-time RT-PCR; endogenous in cells; host or cells: NCI-60 human cancer cell lines
Description: as §1, §2, §3, §4, §8

[6] = target: T6, ABCC5 (Homo sapiens, UniProt O15440); assay: Correlation of ABCC5 expression with drug sensitivity across the NCI-60; type: cell-based; conditions: Pearson correlation of ABCC5 expression with sensitivity of the 60 cell lines; 1429 compounds; inverse, p < 0.0001
T6 construct: profiled in 60 diverse cancer cell lines (the NCI-60) using real-time RT-PCR; endogenous in cells; host or cells: NCI-60 human cancer cell lines
Description: as §1, §2, §3, §4, §8

[7] = target: T7, ABCC3 (Homo sapiens, UniProt O15438); assay: Correlation of ABCC3 expression with drug sensitivity across the NCI-60; type: cell-based; conditions: Pearson correlation of ABCC3 expression with sensitivity of the 60 cell lines; 1429 compounds; inverse, p < 0.0001
T7 construct: profiled in 60 diverse cancer cell lines (the NCI-60) using real-time RT-PCR; endogenous in cells; host or cells: NCI-60 human cancer cell lines
Description: as §1, §2, §3, §4, §5

[8] = target: T8, ABCB5 (Homo sapiens, UniProt Q2M3G0); assay: Correlation of ABCB5 expression with drug sensitivity across the NCI-60; type: cell-based; conditions: Pearson correlation of ABCB5 expression with sensitivity of the 60 cell lines; 1429 compounds; inverse, p < 0.0001
T8 construct: profiled in 60 diverse cancer cell lines (the NCI-60) using real-time RT-PCR; endogenous in cells; host or cells: NCI-60 human cancer cell lines
T8 sequence (Q2M3G0 1-1257): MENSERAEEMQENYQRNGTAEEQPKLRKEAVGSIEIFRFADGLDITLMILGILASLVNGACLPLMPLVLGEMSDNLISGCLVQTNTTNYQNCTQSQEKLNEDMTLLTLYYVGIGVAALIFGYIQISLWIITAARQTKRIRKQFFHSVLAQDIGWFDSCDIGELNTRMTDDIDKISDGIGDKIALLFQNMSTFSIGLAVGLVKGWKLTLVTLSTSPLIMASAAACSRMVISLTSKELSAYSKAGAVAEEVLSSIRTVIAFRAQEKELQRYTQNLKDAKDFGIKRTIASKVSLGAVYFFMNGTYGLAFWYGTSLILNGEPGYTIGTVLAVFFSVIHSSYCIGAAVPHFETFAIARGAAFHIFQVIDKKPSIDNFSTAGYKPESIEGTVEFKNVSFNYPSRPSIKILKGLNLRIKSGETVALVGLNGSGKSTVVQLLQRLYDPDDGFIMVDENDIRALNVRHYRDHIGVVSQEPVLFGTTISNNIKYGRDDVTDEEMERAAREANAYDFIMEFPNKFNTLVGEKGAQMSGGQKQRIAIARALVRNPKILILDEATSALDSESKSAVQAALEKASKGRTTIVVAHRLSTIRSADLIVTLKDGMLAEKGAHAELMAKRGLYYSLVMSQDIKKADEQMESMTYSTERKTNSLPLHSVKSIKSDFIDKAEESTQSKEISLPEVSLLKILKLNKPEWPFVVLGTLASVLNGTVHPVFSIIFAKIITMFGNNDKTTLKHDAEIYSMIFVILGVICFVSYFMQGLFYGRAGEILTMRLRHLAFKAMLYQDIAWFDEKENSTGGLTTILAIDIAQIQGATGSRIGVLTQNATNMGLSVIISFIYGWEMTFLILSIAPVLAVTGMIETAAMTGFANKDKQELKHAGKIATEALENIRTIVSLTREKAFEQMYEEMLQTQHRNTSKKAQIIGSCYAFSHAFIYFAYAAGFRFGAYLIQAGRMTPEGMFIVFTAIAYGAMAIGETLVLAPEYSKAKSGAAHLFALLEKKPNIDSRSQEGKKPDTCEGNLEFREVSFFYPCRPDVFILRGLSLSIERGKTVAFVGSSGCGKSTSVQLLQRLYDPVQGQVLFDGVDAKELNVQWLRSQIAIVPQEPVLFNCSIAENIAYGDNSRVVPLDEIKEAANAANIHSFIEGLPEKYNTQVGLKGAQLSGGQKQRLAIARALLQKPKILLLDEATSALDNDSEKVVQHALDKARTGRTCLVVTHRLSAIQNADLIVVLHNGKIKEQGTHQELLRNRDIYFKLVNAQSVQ
Description: as §1, §2, §3, §4, §8

[9] = target: ABCB1 (Homo sapiens, UniProt P08183); assay: Correlation of ABCB1 expression with drug sensitivity across the NCI-60
Procedure, shortened: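 SYBR Green real-time RT-PCR on 150 ng total RNA with 250 nM primers: RT 20 min at 50 °C, then 45 cycles; expression taken as crossing-point cycle number. Correlated with drug sensitivity of 1429 compounds across the cell panel; permutation p-values with step-down and step-up (FDR q-value) multiple-testing correction.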

[10] = target: T9, ABCC7 (Homo sapiens, UniProt P13569); assay: Correlation of ABCC7 expression with drug sensitivity across the NCI-60; type: cell-based; conditions: Pearson correlation of ABCC7 expression with sensitivity of the 60 cell lines; 1429 compounds; inverse, p < 0.0001
T9 construct: profiled in 60 diverse cancer cell lines (the NCI-60) using real-time RT-PCR; endogenous in cells; host or cells: NCI-60 human cancer cell lines
Description: as §1, §2, §3, §4, §5

[11] = target: T10, ABCA1 (Homo sapiens, UniProt O95477); assay: Correlation of ABCA1 expression with drug sensitivity across the NCI-60; type: cell-based; conditions: Pearson correlation of ABCA1 expression with sensitivity of the 60 cell lines; 1429 compounds; inverse, p < 0.0001
T10 construct: profiled in 60 diverse cancer cell lines (the NCI-60) using real-time RT-PCR; endogenous in cells; host or cells: NCI-60 human cancer cell lines
Description: as §1, §2, §3, §4, §8

T2 sequence (Q86UK0 whole entry): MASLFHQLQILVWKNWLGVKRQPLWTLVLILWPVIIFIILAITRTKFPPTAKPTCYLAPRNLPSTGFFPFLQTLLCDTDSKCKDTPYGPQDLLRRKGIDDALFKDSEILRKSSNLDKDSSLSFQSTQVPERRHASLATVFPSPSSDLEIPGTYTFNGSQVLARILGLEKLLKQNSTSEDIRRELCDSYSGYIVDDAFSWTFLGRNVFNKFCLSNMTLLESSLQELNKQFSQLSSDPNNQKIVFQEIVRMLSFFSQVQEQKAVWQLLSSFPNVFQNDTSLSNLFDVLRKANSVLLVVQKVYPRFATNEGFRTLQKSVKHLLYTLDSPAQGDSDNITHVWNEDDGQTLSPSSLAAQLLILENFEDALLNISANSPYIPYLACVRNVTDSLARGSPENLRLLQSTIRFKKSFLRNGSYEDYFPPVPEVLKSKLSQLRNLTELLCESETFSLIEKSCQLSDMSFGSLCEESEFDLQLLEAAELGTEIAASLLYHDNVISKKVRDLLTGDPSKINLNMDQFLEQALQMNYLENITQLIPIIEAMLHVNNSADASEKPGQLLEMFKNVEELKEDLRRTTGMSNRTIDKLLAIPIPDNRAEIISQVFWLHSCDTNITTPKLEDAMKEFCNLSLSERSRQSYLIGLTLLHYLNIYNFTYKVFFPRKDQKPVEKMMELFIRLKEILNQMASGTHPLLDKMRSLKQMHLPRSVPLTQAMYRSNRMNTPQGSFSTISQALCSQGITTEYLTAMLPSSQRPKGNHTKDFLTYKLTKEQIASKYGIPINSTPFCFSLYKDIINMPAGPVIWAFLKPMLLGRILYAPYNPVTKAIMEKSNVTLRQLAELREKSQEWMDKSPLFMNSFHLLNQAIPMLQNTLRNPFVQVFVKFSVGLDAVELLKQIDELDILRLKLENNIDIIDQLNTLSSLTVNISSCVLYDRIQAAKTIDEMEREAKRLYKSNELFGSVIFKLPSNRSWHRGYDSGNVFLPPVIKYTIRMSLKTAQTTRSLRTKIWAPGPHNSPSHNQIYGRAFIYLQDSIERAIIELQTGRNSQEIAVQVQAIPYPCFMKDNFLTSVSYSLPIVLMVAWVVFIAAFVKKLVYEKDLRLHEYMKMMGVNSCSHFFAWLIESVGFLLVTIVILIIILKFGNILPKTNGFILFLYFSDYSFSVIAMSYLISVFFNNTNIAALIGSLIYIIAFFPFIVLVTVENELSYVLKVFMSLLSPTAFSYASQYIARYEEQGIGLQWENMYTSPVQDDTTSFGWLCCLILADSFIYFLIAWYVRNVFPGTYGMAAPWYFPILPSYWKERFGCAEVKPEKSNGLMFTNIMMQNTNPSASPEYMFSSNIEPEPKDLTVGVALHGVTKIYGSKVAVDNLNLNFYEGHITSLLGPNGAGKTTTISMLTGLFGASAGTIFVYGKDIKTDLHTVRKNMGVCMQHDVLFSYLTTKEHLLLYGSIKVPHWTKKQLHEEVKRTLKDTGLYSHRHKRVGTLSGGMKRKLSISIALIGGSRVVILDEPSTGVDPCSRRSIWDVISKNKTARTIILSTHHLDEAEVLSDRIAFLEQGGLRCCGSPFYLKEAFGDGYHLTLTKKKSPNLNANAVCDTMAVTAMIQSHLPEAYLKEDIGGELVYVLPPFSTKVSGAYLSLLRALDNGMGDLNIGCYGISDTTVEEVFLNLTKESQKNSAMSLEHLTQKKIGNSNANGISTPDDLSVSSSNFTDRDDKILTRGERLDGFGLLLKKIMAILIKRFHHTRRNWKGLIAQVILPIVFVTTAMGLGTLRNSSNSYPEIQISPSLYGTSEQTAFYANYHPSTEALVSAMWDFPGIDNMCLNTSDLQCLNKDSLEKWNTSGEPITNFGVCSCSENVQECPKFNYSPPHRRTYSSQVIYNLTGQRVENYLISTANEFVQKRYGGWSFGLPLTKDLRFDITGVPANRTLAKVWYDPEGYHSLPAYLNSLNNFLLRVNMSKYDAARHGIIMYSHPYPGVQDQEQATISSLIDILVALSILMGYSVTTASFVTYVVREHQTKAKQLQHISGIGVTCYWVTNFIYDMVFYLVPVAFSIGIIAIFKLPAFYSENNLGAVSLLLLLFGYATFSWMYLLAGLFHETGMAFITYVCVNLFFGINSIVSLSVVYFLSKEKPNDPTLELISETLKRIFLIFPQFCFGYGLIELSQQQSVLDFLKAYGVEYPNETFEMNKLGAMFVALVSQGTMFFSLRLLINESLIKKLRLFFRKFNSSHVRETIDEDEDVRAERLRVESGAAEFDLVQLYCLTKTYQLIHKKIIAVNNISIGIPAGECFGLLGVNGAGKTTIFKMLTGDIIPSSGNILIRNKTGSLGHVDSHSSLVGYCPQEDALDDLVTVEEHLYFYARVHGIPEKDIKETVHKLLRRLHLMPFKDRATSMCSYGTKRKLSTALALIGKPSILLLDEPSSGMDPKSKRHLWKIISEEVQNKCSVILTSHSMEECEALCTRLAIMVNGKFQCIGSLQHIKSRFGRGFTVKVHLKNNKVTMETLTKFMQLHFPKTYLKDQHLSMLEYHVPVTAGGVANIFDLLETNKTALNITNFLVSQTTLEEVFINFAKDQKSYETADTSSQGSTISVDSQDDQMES
T9 sequence (P13569 whole entry): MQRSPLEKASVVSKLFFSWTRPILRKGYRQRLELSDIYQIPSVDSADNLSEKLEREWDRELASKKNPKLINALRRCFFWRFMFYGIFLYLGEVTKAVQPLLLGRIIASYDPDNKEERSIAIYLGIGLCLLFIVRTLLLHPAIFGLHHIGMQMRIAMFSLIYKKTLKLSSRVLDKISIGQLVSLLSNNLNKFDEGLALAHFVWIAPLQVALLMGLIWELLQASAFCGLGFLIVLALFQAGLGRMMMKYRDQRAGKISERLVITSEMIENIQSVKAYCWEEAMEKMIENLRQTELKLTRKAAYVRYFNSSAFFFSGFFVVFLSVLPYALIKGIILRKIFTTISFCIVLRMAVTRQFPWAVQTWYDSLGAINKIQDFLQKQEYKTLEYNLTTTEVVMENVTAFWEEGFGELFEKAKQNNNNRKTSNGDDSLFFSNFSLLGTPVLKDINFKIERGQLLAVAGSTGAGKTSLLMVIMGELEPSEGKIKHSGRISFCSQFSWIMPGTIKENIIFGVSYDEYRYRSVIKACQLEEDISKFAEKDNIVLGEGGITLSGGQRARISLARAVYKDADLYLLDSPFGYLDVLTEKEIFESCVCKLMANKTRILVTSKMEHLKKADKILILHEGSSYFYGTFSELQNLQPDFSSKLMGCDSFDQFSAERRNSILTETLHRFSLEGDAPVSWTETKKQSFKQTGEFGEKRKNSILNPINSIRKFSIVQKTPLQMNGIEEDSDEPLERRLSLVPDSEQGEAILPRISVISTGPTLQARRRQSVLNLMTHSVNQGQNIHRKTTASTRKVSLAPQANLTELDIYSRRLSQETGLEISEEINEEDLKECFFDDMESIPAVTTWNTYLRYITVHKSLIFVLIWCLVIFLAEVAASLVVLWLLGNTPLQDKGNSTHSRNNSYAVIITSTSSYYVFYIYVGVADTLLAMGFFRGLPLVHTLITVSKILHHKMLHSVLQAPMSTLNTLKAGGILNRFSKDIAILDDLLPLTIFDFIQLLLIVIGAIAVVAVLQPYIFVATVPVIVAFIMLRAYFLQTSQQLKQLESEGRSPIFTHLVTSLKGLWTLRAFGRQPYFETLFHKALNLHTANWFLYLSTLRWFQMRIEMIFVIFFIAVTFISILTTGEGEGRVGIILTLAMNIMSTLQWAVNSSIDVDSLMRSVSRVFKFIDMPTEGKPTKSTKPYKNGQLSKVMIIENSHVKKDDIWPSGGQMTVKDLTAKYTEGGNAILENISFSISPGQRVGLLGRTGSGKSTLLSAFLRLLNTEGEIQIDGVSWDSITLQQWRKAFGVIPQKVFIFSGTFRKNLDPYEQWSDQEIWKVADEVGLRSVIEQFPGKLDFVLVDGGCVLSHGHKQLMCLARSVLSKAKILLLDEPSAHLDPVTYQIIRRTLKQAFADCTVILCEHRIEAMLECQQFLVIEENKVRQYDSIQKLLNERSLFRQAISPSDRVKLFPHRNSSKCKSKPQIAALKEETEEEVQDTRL

COc1cc(C(=O)N[C@H]2CCc3cc(OC)c(OC)c(OC)c3-c3ccc(OC)c(=O)cc32)cc(OC)c1OC [NSC 355256]
Correlation [1]: −0.3769

COc1cc2c(cc1O)CC[C@@H]1[C@@H]2CC[C@]2(C)[C@@H](O)CC[C@@H]12 [NSC 659853]
Correlation [2]: −0.5016

CC1C(c2ccc3c(c2)OCO3)c2cc3c(cc2OC1N1CCOCC1)OCO3 (stereo not drawn) [NSC 666222]
Correlation [3]: −0.3675

Cc1cc(C)c2c(=O)cc(-c3ccccc3)[nH]c2c1 [NSC 665925]
Correlation [4]: −0.4545

CC1=CC(=O)C(C)=CC1=O [NSC 15309]
Correlation [5]: −0.4683

COc1cc2c(cc1Oc1c(Oc3c(O)c(OC)cc4c3C(CC(C)C)N(C)CC4)c(OC)cc3c1C(CC(C)C)N(C)CC3)C(CC(C)C)N(C)CC2 (stereo not drawn) [NSC 21075]
Correlation [6]: −0.3650

COC(=O)c1ccccc1NC(=O)C(=O)CC(=O)c1ccccc1NC1=CC(=O)C(=O)c2ccccc21 [NSC 641240]
Correlation [2]: −0.5165 | Correlation [7]: −0.5829

COc1cc(CNc2ccc(SC)cc2)cc(OC)c1OC [NSC 650771]
Correlation [4]: −0.3792

CC(=O)Oc1ccc(C2(c3ccc(F)cc3)OC(=O)c3ccccc32)c(C)c1 (stereo not drawn) [NSC 671456]
Correlation [8]: −0.3650

COc1ccc2c(c1)c1c(C)c3c[n+](C)ccc3c(C)c1n2C [NSC 155694]
Correlation [6]: −0.4494

CN(C)CC1CCC/C(=C\c2ccc(OC(=O)/C=C/c3ccc(Cl)c(Cl)c3)cc2)C1=O.Cl (stereo not drawn) [NSC 693443]
Correlation [8]: −0.3300 | Pearson's Correlation Coeff [9]: 0.1842

Cc1c2ccnc(-c3ccccc3)c2cc2c1[nH]c1ccccc12 [NSC 86715]
Correlation [10]: −0.5696 | Correlation of antiproliferative activity with ABCB1 expression [9]: 0.5323

CN(C)c1ccc(/C=c2/c3ccccc3n3c2cc(-c2ccc(Cl)cc2)[n+]3C)cc1.O=S(=O)([O-])C(F)(F)F [NSC 699479]
Correlation [11]: −0.4141

OCCO[P+]1(OCCO)n2c3ccc2C(c2ccccc2)=C2C=CC(=N2)C(c2ccccc2)=c2ccc(n21)=C(c1ccccc1)C1=NC(=C3c2ccccc2)C=C1 [NSC 682066]
Correlation [11]: −0.3783 | Correlation [9]: −0.7985

COc1cc2c(c(OC(C)=O)c1OC(C)=O)-c1ccc(SC)c(=O)cc1C(NC(C)=O)CC2 (stereo not drawn) [NSC 374979]
Correlation [1]: −0.4573

OCC1OC(c2scc3c(=S)nc[nH]c23)C(O)C1O (stereo not drawn) [NSC 670036]
Correlation [8]: −0.4561

C=C1[C@H](OCC(C)C)[C@@H](O)[C@@H](OC(=O)c2cccnc2)C(C)(C)/C=C/[C@H](C)[C@H](OC(C)=O)[C@@]2(O)C[C@@](C)(OC(C)=O)[C@H](OC(=O)c3ccccc3)[C@@H]2[C@H]1OC(C)=O [NSC 688235]
Correlation [4]: −0.3557

CCOC(=O)CNC(=O)NC12CC3CC(CC(C3)C1)C2 [NSC 208914]
Correlation [3]: −0.4950

C=C(c1ccccc1)[C@@]1(O)CC[C@@H]1N(CC#N)Cc1ccccc1 [NSC 617644]
Correlation [3]: −0.5087

O=C1C=C(N2CCN(c3ccccn3)CC2)C(=O)c2c(O)ccc(O)c21 [NSC 658142]
Correlation [7]: −0.4982 | Correlation [1]: −0.4017

Cc1c2ccnc(C(N)=O)c2c(C)c2c1[nH]c1ccccc12.Cl [NSC 335142]
Correlation [5]: −0.4214

COC1=C(OC)C(=O)c2cc(C)c(=O)c(C)cc2C1=O [NSC 649666]
Correlation [2]: −0.3757

CC[n+]1c(/C=C/c2ccc(N(CCCl)CCCl)cc2)ccc2cc(NC(=O)/C=C/c3ccccc3)ccc21.[I-] [NSC 640085]
Correlation [11]: −0.3580

O=C1C=C(Nc2ccccc2C(=O)CC(=O)C(=O)Nc2cccc(C(F)(F)F)c2)c2ccccc2C1=O [NSC 644751]
Correlation [2]: −0.5643 | Correlation [7]: −0.5748

CN1N=C(N)c2cn([C@@H]3O[C@H](COP(=O)(O)O)[C@@H](O)[C@H]3O)c3ncnc1c23 [NSC 280594]
Correlation [8]: −0.3477

CC(=O)O[C@H]1C(=O)[C@@]2(C)[C@H]([C@H](OC(=O)c3ccco3)[C@]3(O)C[C@H](OC(=O)[C@H](O)[C@@H](NC(=O)c4ccccc4)c4ccccc4)C(C)=C1C3(C)C)[C@]1(OC(C)=O)CO[C@@H]1C[C@@H]2O [NSC 673187]
Correlation [1]: −0.3896

C=CCn1c2ccccc2c2c(C)c3cnccc3c(C)c21 [NSC 150834]
Correlation [5]: −0.5267

CC(C)(C)c1nc2c(o1)C(=Nc1ccc(F)cc1)c1ccccc1C2=O [NSC 626030]
Correlation [10]: −0.5025

CC12CCC(CC1)C(C)(C)O2 [NSC 6171]
Correlation [10]: −0.4552

CC(=O)O[C@@]12CO[C@@H]1CC(O)[C@@]1(C)C(=O)[C@H](O)C3=C(C)C(O)C[C@@](O)(C(OC(=O)c4ccccc4)C12)C3(C)C (stereo partly drawn) [NSC 656178]
Correlation [1]: −0.4318

CC1=C(C(=O)Nc2ccccc2)C(c2ccc(N(C)C)cc2)C(C(=O)Nc2ccccc2)=C(C)N1 [NSC 636092]
Correlation [4]: −0.3977

Cc1oc2c(c1C(=O)c1ccccc1)C(=O)c1ccccc1C2=O [NSC 641594]
Correlation [7]: −0.4994 | Correlation [3]: −0.4324

C=C1C(=O)O[C@H]2[C@@H](O)[C@H](C)CCC/C(C)=C/CC[C@@]3(C)O[C@@H]3C[C@@H]12 [NSC 694509]
Correlation [8]: −0.2924 | Pearson's Correlation Coeff [9]: 0.2823

O=C1C(CO)=C[C@H](O)[C@H]2O[C@@H]12 [NSC 326233]
Correlation [5]: −0.4430

COC(=O)CCC(=O)NC1=C(Nc2ccccc2)C(=O)c2ccccc2C1=O [NSC 670762]
Correlation [3]: −0.4326

CC1(C)C[C@]23[C@@H]4COC(=O)[C@H]2CC[C@H]1[C@@H]3CC4=O [NSC 284437]
Correlation [5]: −0.5273

CC[C@]1(O)C[C@@H]2CN(CCc3c([nH]c4ccccc34)[C@@](C(=O)OC)(c3cc4c(cc3OC)N(C)[C@H]3[C@@](O)(C(=O)OC)[C@H](OC(C)=O)[C@]5(CC)C=CCN6CC[C@]43[C@@H]65)C2)C1.O=S(=O)(O)O [NSC 49842]
Correlation [1]: −0.3678
